Measurements as given in the NIST ThermoML archive (doi:10.1016/j.fluid.2015.03.038).
Values joined by “and” are separate entries in the source; they are usually repeats but may differ in a detail not shown here. Equal values may be shown once. Numbers after ± are expanded uncertainties.

Settings: Liquid

OCC(O)CO [glycerol]
vapor or sublimation pressure (303.59 K, static (had to override TRC unc)): 4.15e-05 ± 7e-07 kPa | vapor or sublimation pressure (303.61 K, static (had to override TRC unc)): 4.19e-05 ± 7e-07 kPa | vapor or sublimation pressure (304.56 K, static (had to override TRC unc)): 4.68e-05 ± 7e-07 kPa | vapor or sublimation pressure (306.03 K, static (had to override TRC unc)): 5.56e-05 ± 8e-07 kPa | vapor or sublimation pressure (308.43 K, static (had to override TRC unc)): 7.28e-05 ± 9e-07 kPa | vapor or sublimation pressure (310.89 K, static (had to override TRC unc)): 9.63e-05 ± 1e-06 kPa | vapor or sublimation pressure (313.29 K, static (had to override TRC unc)): 0.000125 ± 1.1e-06 kPa | vapor or sublimation pressure (315.71 K, static (had to override TRC unc)): 0.0001634 ± 1.3e-06 kPa | vapor or sublimation pressure (318.12 K, static (had to override TRC unc)): 0.0002107 ± 1.5e-06 kPa | vapor or sublimation pressure (320.57 K, static (had to override TRC unc)): 0.0002701 ± 1.9e-06 kPa | vapor or sublimation pressure (322.95 K, static (had to override TRC unc)): 0.0003472 ± 2.1e-06 kPa | vapor or sublimation pressure (325.42 K, static (had to override TRC unc)): 0.0004428 ± 2.7e-06 kPa | vapor or sublimation pressure (327.82 K, static (had to override TRC unc)): 0.0005644 ± 3.4e-06 kPa | vapor or sublimation pressure (330.3 K, static (had to override TRC unc)): 0.0007165 ± 4.3e-06 kPa | vapor or sublimation pressure (332.72 K, static (had to override TRC unc)): 0.0009037 ± 5.4e-06 kPa | vapor or sublimation pressure (335.14 K, static (had to override TRC unc)): 0.001132 ± 5.7e-06 kPa | vapor or sublimation pressure (338.2 K, transpiration (had to override TRC unc)): 0.00151 ± 4e-05 kPa | vapor or sublimation pressure (338.25 K, static (had to override TRC unc)): 0.001502 ± 7.5e-06 kPa | vapor or sublimation pressure (340.68 K, static (had to override TRC unc)): 0.001872 ± 9.4e-06 kPa | vapor or sublimation pressure (341.7 K, transpiration (had to override TRC unc)): 0.0021 ± 6e-05 kPa | vapor or sublimation pressure (343.08 K, static (had to override TRC unc)): 0.00232 ± 1.2e-05 kPa | vapor or sublimation pressure (345.51 K, static (had to override TRC unc)): 0.002876 ± 1.4e-05 kPa | vapor or sublimation pressure (347.7 K, transpiration (had to override TRC unc)): 0.00355 ± 9e-05 kPa | vapor or sublimation pressure (347.91 K, static (had to override TRC unc)): 0.003529 ± 1.8e-05 kPa | vapor or sublimation pressure (350.34 K, static (had to override TRC unc)): 0.00436 ± 2.2e-05 kPa | vapor or sublimation pressure (351.5 K, transpiration (had to override TRC unc)): 0.00503 ± 0.00013 kPa | vapor or sublimation pressure (352.57 K, static (had to override TRC unc)): 0.00526 ± 7.9e-05 kPa | vapor or sublimation pressure (352.58 K, static (had to override TRC unc)): 0.00527 ± 7.4e-05 kPa | vapor or sublimation pressure (352.6 K, static (had to override TRC unc)): 0.00528 ± 7.4e-05 kPa | vapor or sublimation pressure (352.73 K, static (had to override TRC unc)): 0.005318 ± 2.7e-05 kPa | vapor or sublimation pressure (354.5 K, transpiration (had to override TRC unc)): 0.00631 ± 0.00018 kPa | vapor or sublimation pressure (354.98 K, static (had to override TRC unc)): 0.00639 ± 8.3e-05 kPa | vapor or sublimation pressure (354.99 K, static (had to override TRC unc)): 0.00641 ± 8.3e-05 kPa | vapor or sublimation pressure (355.18 K, static (had to override TRC unc)): 0.006488 ± 3.2e-05 kPa | vapor or sublimation pressure (357.39 K, static (had to override TRC unc)): 0.00777 ± 8.6e-05 kPa | vapor or sublimation pressure (357.42 K, static (had to override TRC unc)): 0.00782 ± 8.6e-05 kPa | vapor or sublimation pressure (357.5 K, transpiration (had to override TRC unc)): 0.00831 ± 0.00023 kPa | vapor or sublimation pressure (357.57 K, static (had to override TRC unc)): 0.007863 ± 3.9e-05 kPa | vapor or sublimation pressure (359.8 K, static (had to override TRC unc)): 0.00938 ± 9.4e-05 kPa | vapor or sublimation pressure (359.82 K, static (had to override TRC unc)): 0.00939 ± 9.4e-05 kPa | vapor or sublimation pressure (360.01 K, static (had to override TRC unc)): 0.009523 ± 4.8e-05 kPa | vapor or sublimation pressure (360.1 K, transpiration (had to override TRC unc)): 0.00989 ± 0.00027 kPa | vapor or sublimation pressure (362.42 K, static (had to override TRC unc)): 0.01146 ± 5.7e-05 kPa | vapor or sublimation pressure (362.63 K, static (had to override TRC unc)): 0.0117 ± 0.00011 kPa | vapor or sublimation pressure (362.66 K, static (had to override TRC unc)): 0.01179 ± 0.00011 kPa | vapor or sublimation pressure (363.2 K, transpiration (had to override TRC unc)): 0.01274 ± 0.00034 kPa | vapor or sublimation pressure (364.82 K, static (had to override TRC unc)): 0.0138 ± 0.00012 kPa | vapor or sublimation pressure (365.07 K, static (had to override TRC unc)): 0.0141 ± 0.00013 kPa | vapor or sublimation pressure (365.08 K, static (had to override TRC unc)): 0.01409 ± 0.00013 kPa | vapor or sublimation pressure (365.9 K, transpiration (had to override TRC unc)): 0.01529 ± 0.00041 kPa | vapor or sublimation pressure (367.45 K, static (had to override TRC unc)): 0.01686 ± 0.00013 kPa | vapor or sublimation pressure (367.48 K, static (had to override TRC unc)): 0.01696 ± 0.00014 kPa | vapor or sublimation pressure (369.89 K, static (had to override TRC unc)): 0.0202 ± 0.00014 kPa | vapor or sublimation pressure (369.91 K, static (had to override TRC unc)): 0.02016 ± 0.00014 kPa | vapor or sublimation pressure (370.3 K, transpiration (had to override TRC unc)): 0.0208 ± 0.00054 kPa | vapor or sublimation pressure (372.27 K, static (had to override TRC unc)): 0.024 ± 0.00017 kPa | vapor or sublimation pressure (372.29 K, static (had to override TRC unc)): 0.02415 ± 0.00017 kPa | vapor or sublimation pressure (374.7 K, static (had to override TRC unc)): 0.0286 ± 0.0002 kPa | vapor or sublimation pressure (374.73 K, static (had to override TRC unc)): 0.0286 ± 0.0002 kPa | vapor or sublimation pressure (377.08 K, static (had to override TRC unc)): 0.03379 ± 0.0002 kPa | vapor or sublimation pressure (377.11 K, static (had to override TRC unc)): 0.03408 ± 0.0002 kPa | vapor or sublimation pressure (377.77 K, static (had to override TRC unc)): 0.03569 ± 0.00021 kPa | vapor or sublimation pressure (380.17 K, static (had to override TRC unc)): 0.04186 ± 0.00025 kPa | vapor or sublimation pressure (380.19 K, static (had to override TRC unc)): 0.04192 ± 0.00025 kPa | vapor or sublimation pressure (382.55 K, static (had to override TRC unc)): 0.04942 ± 0.0003 kPa | vapor or sublimation pressure (382.59 K, static (had to override TRC unc)): 0.04972 ± 0.0003 kPa and 0.0496 ± 0.0003 kPa | vapor or sublimation pressure (384.99 K, static (had to override TRC unc)): 0.0582 ± 0.00035 kPa | vapor or sublimation pressure (385.01 K, static (had to override TRC unc)): 0.05821 ± 0.00035 kPa | vapor or sublimation pressure (387.37 K, static (had to override TRC unc)): 0.06807 ± 0.00041 kPa | vapor or sublimation pressure (387.39 K, static (had to override TRC unc)): 0.06861 ± 0.00041 kPa | vapor or sublimation pressure (389.8 K, static (had to override TRC unc)): 0.07986 ± 0.00048 kPa | vapor or sublimation pressure (389.83 K, static (had to override TRC unc)): 0.07998 ± 0.00048 kPa | vapor or sublimation pressure (392.18 K, static (had to override TRC unc)): 0.09311 ± 0.00056 kPa | vapor or sublimation pressure (392.2 K, static (had to override TRC unc)): 0.09367 ± 0.00056 kPa | vapor or sublimation pressure (394.61 K, static (had to override TRC unc)): 0.1087 ± 0.00054 kPa | vapor or sublimation pressure (394.64 K, static (had to override TRC unc)): 0.1087 ± 0.00054 kPa | vapor or sublimation pressure (397 K, static (had to override TRC unc)): 0.1258 ± 0.00063 kPa | vapor or sublimation pressure (397.02 K, static (had to override TRC unc)): 0.1266 ± 0.00063 kPa | vapor or sublimation pressure (399.42 K, static (had to override TRC unc)): 0.1462 ± 0.00073 kPa | vapor or sublimation pressure (399.45 K, static (had to override TRC unc)): 0.1464 ± 0.00073 kPa | vapor or sublimation pressure (401.81 K, static (had to override TRC unc)): 0.1688 ± 0.00084 kPa and 0.1687 ± 0.00084 kPa | vapor or sublimation pressure (401.83 K, static (had to override TRC unc)): 0.1694 ± 0.00085 kPa | vapor or sublimation pressure (404.23 K, static (had to override TRC unc)): 0.1952 ± 0.001 kPa | vapor or sublimation pressure (404.26 K, static (had to override TRC unc)): 0.1952 ± 0.00098 kPa | vapor or sublimation pressure (406.62 K, static (had to override TRC unc)): 0.2242 ± 0.0011 kPa and 0.224 ± 0.0011 kPa | vapor or sublimation pressure (406.64 K, static (had to override TRC unc)): 0.2251 ± 0.0011 kPa | vapor or sublimation pressure (409.68 K, static (had to override TRC unc)): 0.2687 ± 0.0013 kPa | vapor or sublimation pressure (409.69 K, static (had to override TRC unc)): 0.269 ± 0.0013 kPa | vapor or sublimation pressure (412.08 K, static (had to override TRC unc)): 0.308 ± 0.0015 kPa | vapor or sublimation pressure (412.11 K, static (had to override TRC unc)): 0.3089 ± 0.0015 kPa | vapor or sublimation pressure (414.48 K, static (had to override TRC unc)): 0.3526 ± 0.0018 kPa | vapor or sublimation pressure (414.49 K, static (had to override TRC unc)): 0.3526 ± 0.0018 kPa | vapor or sublimation pressure (416.89 K, static (had to override TRC unc)): 0.4023 ± 0.002 kPa | vapor or sublimation pressure (416.92 K, static (had to override TRC unc)): 0.4033 ± 0.002 kPa | vapor or sublimation pressure (419.3 K, static (had to override TRC unc)): 0.4585 ± 0.0023 kPa and 0.4583 ± 0.0023 kPa | vapor or sublimation pressure (421.7 K, static (had to override TRC unc)): 0.521 ± 0.0026 kPa | vapor or sublimation pressure (421.73 K, static (had to override TRC unc)): 0.5224 ± 0.0026 kPa | vapor or sublimation pressure (424.1 K, static (had to override TRC unc)): 0.5919 ± 0.003 kPa | vapor or sublimation pressure (424.11 K, static (had to override TRC unc)): 0.5923 ± 0.003 kPa | vapor or sublimation pressure (426.5 K, static (had to override TRC unc)): 0.6698 ± 0.0034 kPa | vapor or sublimation pressure (426.53 K, static (had to override TRC unc)): 0.6725 ± 0.0034 kPa | vapor or sublimation pressure (428.91 K, static (had to override TRC unc)): 0.7586 ± 0.0038 kPa and 0.7584 ± 0.0038 kPa | vapor or sublimation pressure (431.31 K, static (had to override TRC unc)): 0.8565 ± 0.0043 kPa | vapor or sublimation pressure (431.34 K, static (had to override TRC unc)): 0.8583 ± 0.0043 kPa | vapor or sublimation pressure (433.72 K, static (had to override TRC unc)): 0.9653 ± 0.0048 kPa | vapor or sublimation pressure (433.73 K, static (had to override TRC unc)): 0.9671 ± 0.0048 kPa | vapor or sublimation pressure (436.11 K, static (had to override TRC unc)): 1.086 ± 0.0054 kPa | vapor or sublimation pressure (436.13 K, static (had to override TRC unc)): 1.087 ± 0.0054 kPa
